Drawing on patent US20240366770A1, “DEGRADATION OF BRUTON'S TYROSINE KINASE (BTK) BY CONJUGATION OF BTK INHIBITORS WITH E3 LIGASE LIGAND AND METHODS OF USE” (BeiGene Switzerland GmbH, priority 2021, published 2024), this text covers DC50 and IC50 for 7 compounds.

Structures are written as SMILES. Where two headings read alike, the source gives them in different places. A value given as a limit tells only on which side of the number the result lay.

For one test, the target named is T1, BTK (Homo sapiens, UniProt Q06187).
T1 construct: High control=Cell group with added DMSO and without compound, indicating microplate readings without BTK degradation; endogenous in cells; host or cells: TMD-8
Nature of the test: BTK degradation in TMD-8 cells (HTRF assay). Format: cell-based. The following applies: 6 h treatment, IC50 (DC50) of BTK degradation. Put shortly: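 BTK remaining after compound treatment was measured by HTRF (337 nm excitation, 665/620 nm emission) in lysates of TMD-8 cells. Cells were exposed for 6 h to eight 6-fold-spaced concentrations in 0.2% DMSO. DC50 values were obtained from a Hill-equation fit (top, bottom, slope) of % inhibition.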
On the technique in general: Time-resolved FRET reads energy transfer from a long-lived donor to a nearby acceptor.

In the next test the test system is HEK-293 cells. Nature of the test: HEK-293 cytotoxicity detection (CellTiter-Glo). The following applies: Homo sapiens. The format is cell-based. Put shortly:
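Four-parameter logistic fitting of percent inhibition versus concentration gives IC50. Luminescent ATP read-out (CellTiter-Glo) after 72 h compound treatment of HEK-293 cells, 8 doses in 4-fold steps from a 5 mM 500× DMSO stock, final DMSO 0.2%.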
In general terms: Cellular ATP, detected with luciferase, serves as a proxy for viable cell number.

[1] abbreviates: HEK-293 cells, 72 h incubation, CellTiter-Glo luminescence, IC50 of cell proliferation inhibition, read-out: HEK293.

T1 sequence (Q06187 whole entry): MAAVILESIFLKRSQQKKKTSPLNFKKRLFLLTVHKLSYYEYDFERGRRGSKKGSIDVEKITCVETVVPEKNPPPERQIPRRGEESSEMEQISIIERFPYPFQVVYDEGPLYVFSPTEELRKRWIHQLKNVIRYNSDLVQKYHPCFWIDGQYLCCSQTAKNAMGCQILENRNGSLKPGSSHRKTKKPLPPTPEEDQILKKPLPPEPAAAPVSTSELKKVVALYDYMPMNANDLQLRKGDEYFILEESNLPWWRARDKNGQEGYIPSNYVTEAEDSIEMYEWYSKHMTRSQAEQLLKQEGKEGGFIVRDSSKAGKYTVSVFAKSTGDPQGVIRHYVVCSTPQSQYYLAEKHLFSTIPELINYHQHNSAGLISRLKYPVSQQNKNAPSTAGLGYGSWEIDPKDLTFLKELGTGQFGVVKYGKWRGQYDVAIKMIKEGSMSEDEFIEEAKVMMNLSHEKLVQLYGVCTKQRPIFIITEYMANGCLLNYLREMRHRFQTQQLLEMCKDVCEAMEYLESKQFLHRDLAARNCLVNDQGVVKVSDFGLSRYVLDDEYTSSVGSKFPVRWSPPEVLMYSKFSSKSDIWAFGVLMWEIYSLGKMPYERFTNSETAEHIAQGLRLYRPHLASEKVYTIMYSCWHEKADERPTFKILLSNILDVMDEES

Compound `COc1cc2c(cc1N1CCN(C3CC(c4ccc([C@@H]5CCC(=O)NC5=O)cc4)C3)CC1)[nH]c1ncnc(-c3ccc([C@@H](C)NC(=O)c4nc(C(C)(C)C)no4)c(C)c3F)c12` (stereo partly drawn) [Example 55, 3-(tert-butyl)-N—((R)-1-(4-(7-(4-(3-(4-((S)-2,6-dioxopiperidin-3-yl)phenyl)cyclobutyl)piperazin-1-yl)-6-methoxy-9H-pyrimido[4,5-b]indol-4-yl)-3-fluoro-2-methylphenyl)ethyl)-1,2,4-oxadiazole-5-carboxamide] had a DC50 at BTK of 6.97 nM. Also, in the test on HEK-293 cells (setting [1]), the IC50 is above 10000 nM.

At BTK, `Cc1cc(-c2ncnc3[nH]c4ccc(N5CCN(CC6CCN(c7ccc(N8CCC(=O)NC8=O)cc7)CC6)CC5)cc4c23)ccc1CNC(=O)c1nc(C(C)(C)C)no1` [Example 1, 3-(tert-butyl)-N-(4-(6-(4-((1-(4-(2,4-dioxotetrahydropyrimidin-1(2H)-yl)phenyl)piperidin-4-yl)methyl)piperazin-1-yl)-9H-pyrimido[4,5-b]indol-4-yl)-2-methylbenzyl)-1,2,4-oxadiazole-5-carboxamide] showed a DC50 of 4.94 nM. Besides, in the test on HEK-293 cells (setting [1]), the IC50 is above 10000 nM.

Regarding `Cc1cc(-c2ncnc3[nH]c4cc(N5CCN(CC6CCN(c7ccc(N8CCC(=O)NC8=O)cn7)CC6)CC5)ccc4c23)ccc1[C@@H](C)NC(=O)c1nc(C(C)(C)C)no1` [Example 7, (R)-3-(tert-butyl)-N-(1-(4-(7-(4-((1-(5-(2,4-dioxotetrahydropyrimidin-1(2H)-yl)pyridin-2-yl)piperidin-4-yl)methyl)piperazin-1-yl)-9H-pyrimido[4,5-b]indol-4-yl)-2-methylphenyl)ethyl)-1,2,4-oxadiazole-5-carboxamide], the DC50 at BTK came to 1.27 nM. Further, the IC50 in the test on HEK-293 cells (setting [1]) is above 10000 nM.

As for `COc1cc2c(cc1N1CCN(C3CCN(c4cccc(C5CCC(=O)NC5=O)c4)C3)CC1)[nH]c1ncnc(-c3ccc([C@@H](C)NC(=O)c4nc(C(C)(C)C)no4)c(C)c3)c12` (stereo partly drawn) [Example 51, 3-(tert-butyl)-N-((1R)-1-(4-(7-(4-(1-(3-(2,6-dioxopiperidin-3-yl)phenyl)pyrrolidin-3-yl)piperazin-1-yl)-6-methoxy-9H-pyrimido[4,5-b]indol-4-yl)-2-methylphenyl)ethyl)-1,2,4-oxadiazole-5-carboxamide], half-maximal degradation at BTK (DC50) was put at 0.987 nM. The IC50 in the test with HEK-293 cells (setting [1]) is above 10000 nM.

On BTK, `Cc1c([C@@H](C)NC(=O)c2noc(C(C)(C)C)n2)ccc(-c2ncnc3[nH]c4cc(N5CCN(Cc6ccc(SC7CCC(=O)NC7=O)cc6)CC5)ccc4c23)c1F` (stereo partly drawn) [Example 88, 5-(tert-butyl)-N-((1R)-1-(4-(7-(4-(4-((2,6-dioxopiperidin-3-yl)thio)benzyl)piperazin-1-yl)-9H-pyrimido[4,5-b]indol-4-yl)-3-fluoro-2-methylphenyl)ethyl)-1,2,4-oxadiazole-3-carboxamide] came in with a half-maximal degradation concentration (DC50) above 2000 nM. In addition, the IC50 in the test with HEK-293 cells (setting [1]) was above 10000 nM.

`Cc1cc(-c2ncnc3[nH]c4cc(N5CCN(CCc6ccc7c(c6)C6(CC6)C(=O)N7C6CCC(=O)NC6=O)CC5)ccc4c23)ccc1[C@@H](C)NC(=O)c1nc(C2(C)CC2)no1` (stereo partly drawn) [Example 123, N-((1R)-1-(4-(7-(4-(2-(1′-(2,6-dioxopiperidin-3-yl)-2′-oxospiro[cyclopropane-1,3′-indolin]-5′-yl)ethyl)piperazin-1-yl)-9H-pyrimido[4,5-b]indol-4-yl)-2-methylphenyl)ethyl)-3-(1-methylcyclopropyl)-1,2,4-oxadiazole-5-carboxamide] yielded a DC50 on BTK of 0.192 nM. The IC50 in the test on HEK-293 cells (HEK293, 72 h, read-out: HEK293 (nM)) was above 10000 nM.

Consider `COc1cc2c(cc1N1CCN([C@H]3C[C@@H](c4ccc(N[C@H]5CCC(=O)NC5=O)cc4)C3)CC1)[nH]c1ncnc(-c3cc(C)c([C@@H](C)NC(=O)c4nc(C5(C)CC5)no4)cc3F)c12` [Example 95, N—((R)-1-(4-(7-(4-((1R,3s)-3-(4-(((S)-2,6-dioxopiperidin-3-yl)amino)phenyl)cyclobutyl)piperazin-1-yl)-6-methoxy-9H-pyrimido[4,5-b]indol-4-yl)-5-fluoro-2-methylphenyl)ethyl)-3-(1-methylcyclopropyl)-1,2,4-oxadiazole-5-carboxamide], for which the DC50 at BTK was 0.49 nM. Further, the IC50 with HEK-293 cells (setting [1]) was above 10000 nM.

What is called DC50 is the midpoint of the concentration-degradation curve.
